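Protocol summary: plate cells (96-well), add compound at 5 concentrations, incubate 48 h, interpolate endpoints linearly. GI50 marks 50% less growth. TGI: concentration producing complete growth inhibition.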
Legend:
Test in all cases: NCI-60 cell line screen, 48 h
[1] = system: SF-295 CNS
[2] = system: NCI-H522 lung
[3] = system: TK-10 renal
[4] = system: SW-620 colon
[5] = system: SNB-75 CNS
[6] = system: CCRF-CEM leukemia
[7] = system: MDA-MB-435
[8] = system: SK-MEL-28 melanoma
[9] = system: RPMI-8226 leukemia
[10] = system: T-47D breast
[11] = system: HCC-2998 colon
[12] = system: UO-31 renal
[13] = system: DU-145 prostate
[14] = system: MOLT-4 leukemia
[15] = system: NCI-H460 lung
[16] = system: SF-539 CNS
[17] = system: CAKI-1 renal
[18] = system: SF-268 CNS
[19] = system: OVCAR-5 ovarian
[20] = system: SNB-19 CNS
[21] = system: ACHN renal
[22] = system: SN12C renal
[23] = system: IGROV1 ovarian
[24] = system: OVCAR-3 ovarian
[25] = system: RXF 393 renal
[26] = system: UACC-257 melanoma
[27] = system: SR leukemia
[28] = system: UACC-62 melanoma
[29] = system: HL-60(TB) leukemia
[30] = system: HT29 colon
[31] = system: HS 578T breast
[32] = system: MCF7 breast
[33] = system: NCI-H23 lung
[34] = system: HCT-15 colon
[35] = system: A549 NSCLC
[36] = system: COLO 205 colon
[37] = system: OVCAR-4 ovarian
[38] = system: HCT-116 colon
[39] = system: SK-OV-3 ovarian
[40] = system: SK-MEL-5 melanoma
[41] = system: M14 melanoma
[42] = system: K-562 leukemia
[43] = system: U251 CNS
[44] = system: HOP-62 NSCLC
[45] = system: KM12 colon
[46] = system: MDA-MB-231 breast
[47] = system: 786-0 renal
[48] = system: A498 renal
[49] = system: OVCAR-8 ovarian
[50] = system: MALME-3M melanoma
[51] = system: PC-3 prostate
[52] = system: NCI/ADR-RES ovarian
[53] = system: BT-549 breast

## COc1cc2c(cc1OC)C(=O)/C(=C/c1cc(-c3ccc4c(c3)OCO4)n[nH]1)C2
[1]
  GI50: 1640 nM
  TGI: 3260 nM
[2]
  GI50: 258 nM
  TGI: 871 nM
[3]
  GI50: 1890 nM
  TGI: 3360 nM
[4]
  GI50: 1350 nM
  TGI: 3470 nM
[5]
  GI50: 1650 nM
  TGI: 3020 nM
[6]
  GI50: 1140 nM
  TGI: 3610 nM
[7]
  GI50: 1730 nM
  TGI: 3270 nM
[8]
  GI50: 1890 nM
  TGI: 3400 nM
[9]
  GI50: 233 nM
  TGI: 623 nM
[10]
  GI50: 1310 nM
  TGI: 2720 nM
[11]
  GI50: 1880 nM
  TGI: 3440 nM
[12]
  GI50: 1290 nM
  TGI: 2670 nM
[13]
  GI50: 1450 nM
  TGI: 2860 nM
[14]
  GI50: 2570 nM
  TGI: 6970 nM
[15]
  GI50: 1680 nM
  TGI: 3790 nM
[16]
  GI50: 1270 nM
  TGI: 2570 nM
[17]
  GI50: 1500 nM
  TGI: 3000 nM
[18]
  GI50: 1630 nM
  TGI: 3370 nM
[19]
  GI50: 1560 nM
  TGI: 3000 nM
[20]
  GI50: 1550 nM
  TGI: 2960 nM
[21]
  GI50: 1730 nM
  TGI: 3230 nM
[22]
  GI50: 1590 nM
  TGI: 2990 nM
[23]
  GI50: 1890 nM
  TGI: 4580 nM
[24]
  GI50: 1410 nM
  TGI: 2800 nM
[25]
  GI50: 1540 nM
  TGI: 3190 nM
[26]
  GI50: 1710 nM
  TGI: 3130 nM
[27]
  GI50: 627 nM
  TGI: 4110 nM
[28]
  GI50: 1630 nM
  TGI: 3040 nM
[29]
  GI50: 2070 nM
  TGI: 5590 nM
[30]
  GI50: 1450 nM
  TGI: 3090 nM
[31]
  GI50: 2610 nM
  TGI: 8080 nM
[32]
  GI50: 339 nM
  TGI: 1420 nM
[33]
  GI50: 1870 nM
  TGI: 3910 nM
[34]
  GI50: 1120 nM
  TGI: 2810 nM
[35]
  GI50: 1960 nM
  TGI: 5450 nM
[36]
  GI50: 1700 nM
  TGI: 3110 nM
[37]
  GI50: 1110 nM
  TGI: 2360 nM
[38]
  GI50: 1030 nM
  TGI: 2550 nM
[39]
  GI50: 2890 nM
  TGI: 7160 nM
[40]
  GI50: 1670 nM
  TGI: 3060 nM
[41]
  GI50: 1820 nM
  TGI: 3400 nM
[42]
  GI50: 1590 nM
  TGI: > 100000 nM
[43]
  GI50: 1090 nM
  TGI: 2310 nM
[44]
  GI50: 1530 nM
  TGI: 2960 nM
[45]
  GI50: 1290 nM
  TGI: 2730 nM
[46]
  GI50: 1660 nM
  TGI: 3200 nM
[47]
  GI50: 1610 nM
  TGI: 2990 nM
[48]
  GI50: 1330 nM
  TGI: 2830 nM
[49]
  GI50: 1570 nM
  TGI: 3050 nM
[50]
  GI50: 1740 nM
  TGI: 3600 nM
[51]
  GI50: 1290 nM
  TGI: 2920 nM
[52]
  GI50: 2250 nM
  TGI: 6870 nM
[53]
  GI50: 1620 nM
  TGI: 3040 nM
